According to patent US20090304803A1, “Compositions and methods relating to target-specific photodynamic therapy” (The General Hospital Corporation, priority 2005, published 2009):

What was measured:
HER2 = details: cited from earlier work
MCF7 cells = details: cited from earlier work
ErbB3 receptor = target: T1, ErbB3 receptor (Homo sapiens, UniProt P21860); assay: ErbB3-specific aptamer localization in target and non-target cells, confocal microscopy; format: cell-based; details: 2 uM, 15 minutes at 4° C. then 20 minutes at 37° C.
T1 construct: endogenous in cells; host or cells: OVCAR3 (target); PA-1 (non-expressing control)
Protocol: Both ErbB3-expressing cells (OVCAR3) and non-expressing cells (PA-1) were incubated with the ErbB3-specific aptamer and the cells were imaged using a confocal microscope. OVCAR3 (target) and PA-1 (non-target) cells were incubated with 2 uM ErbB3 specific aptamer (tagged on the 5′ end with Fluoroscein) for 15 minutes at 4° C. and then for 20 minutes at 37° C. The cells were then imaged using a confocal laser scanning microscope with 488 nm excitation. The fluorescence was collected using a 515 nm long pass filter.

[1] = water; cited from earlier work

T1 sequence (P21860 20-1342): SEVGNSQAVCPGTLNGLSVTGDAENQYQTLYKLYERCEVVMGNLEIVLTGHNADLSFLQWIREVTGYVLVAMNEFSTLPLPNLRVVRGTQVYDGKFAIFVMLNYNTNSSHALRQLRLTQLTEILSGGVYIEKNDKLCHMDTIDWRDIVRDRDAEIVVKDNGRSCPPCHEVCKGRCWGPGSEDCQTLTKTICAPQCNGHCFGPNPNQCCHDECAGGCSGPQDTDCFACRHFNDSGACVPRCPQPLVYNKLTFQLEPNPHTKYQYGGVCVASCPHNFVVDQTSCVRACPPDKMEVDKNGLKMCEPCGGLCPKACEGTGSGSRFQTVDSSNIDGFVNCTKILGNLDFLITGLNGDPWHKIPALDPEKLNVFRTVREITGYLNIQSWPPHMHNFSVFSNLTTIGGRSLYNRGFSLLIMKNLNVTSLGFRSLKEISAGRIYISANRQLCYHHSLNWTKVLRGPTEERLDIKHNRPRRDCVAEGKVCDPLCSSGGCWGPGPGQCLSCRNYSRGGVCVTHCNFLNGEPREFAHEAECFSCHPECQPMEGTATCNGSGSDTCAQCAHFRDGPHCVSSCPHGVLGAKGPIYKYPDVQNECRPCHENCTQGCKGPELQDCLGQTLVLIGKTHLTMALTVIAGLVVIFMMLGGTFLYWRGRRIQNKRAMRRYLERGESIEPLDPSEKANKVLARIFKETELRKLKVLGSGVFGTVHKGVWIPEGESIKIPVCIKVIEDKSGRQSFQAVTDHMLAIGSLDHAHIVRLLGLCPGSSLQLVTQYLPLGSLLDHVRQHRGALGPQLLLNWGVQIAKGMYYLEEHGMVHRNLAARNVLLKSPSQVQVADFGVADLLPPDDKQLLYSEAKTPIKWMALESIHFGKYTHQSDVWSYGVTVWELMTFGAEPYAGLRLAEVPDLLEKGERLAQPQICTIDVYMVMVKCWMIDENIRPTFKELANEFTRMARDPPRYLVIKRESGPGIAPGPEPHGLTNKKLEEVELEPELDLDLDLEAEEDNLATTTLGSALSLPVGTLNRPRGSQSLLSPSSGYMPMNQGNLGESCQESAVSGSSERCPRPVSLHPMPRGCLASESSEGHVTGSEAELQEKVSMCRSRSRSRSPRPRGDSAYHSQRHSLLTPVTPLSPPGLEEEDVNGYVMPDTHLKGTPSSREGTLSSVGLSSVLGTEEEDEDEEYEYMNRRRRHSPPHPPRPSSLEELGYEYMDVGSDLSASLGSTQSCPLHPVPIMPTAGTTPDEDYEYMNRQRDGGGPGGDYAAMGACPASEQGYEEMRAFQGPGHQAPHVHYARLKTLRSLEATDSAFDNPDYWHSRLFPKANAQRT

In the case of “ErbB3-specific aptamer: aptamer that recognizes the ErbB3 receptor, sequence from Chen et al., PNAS 2003; labeled at 5′ end with Fluoroscein (DNA CAGCGAAAGUUGCGUAUGGGUCACAUCGCAGGCACAUGUCAUCUGGGCG; 5' fluorescein label, chemistry of the aptamer otherwise not given here)”, the “hrg-dependent tyrosine phosphorylation of HER2” value (HER2) is given as “inhibited”, the “hrg-induced growth response of MCF7 cells” value (MCF7 cells) is given as “inhibited” and the “aptamer localization, OVCAR3 (target) versus PA-1 (non-target)” value (ErbB3 receptor) is given as “localized specifically to the OVCAR3 cell line”.
In the case of “chlorin e6 monoethylendiamine monamide [CMA]”, the solubility [1] is given as “soluble in water”.
